We go through 10 molecules from patent US20250163104A1, “MACROCYCLIC IMMUNOMODULATORS” (priority 2021, published 2025).

In general, IC50 refers to the concentration at which inhibition is half-maximal.

Where two headings read alike, the source gives them in different places. Where a SMILES comes first, the peptide text is derived from it. Bridges are numbered along the chain shown (N, C = ends). [ ]: non-standard residue; d: D form. The star is where a group is joined. ξ: configuration not given here. Ala(morpholin-4-yl) = N[C@@H](CN1CCOCC1)C(=O)O; Phe(4-COOH) = N[C@@H](Cc1ccc(C(=O)O)cc1)C(=O)O; Bip = N[C@@H](Cc1ccc(-c2ccccc2)cc1)C(=O)O; Phe(3-F) = N[C@@H](Cc1cccc(F)c1)C(=O)O; Phe(3-Me) = Cc1cccc(C[C@H](N)C(=O)O)c1; Val(3-OH) = CC(C)(O)[C@H](N)C(=O)O; h4Pal = N[C@@H](CCc1ccncc1)C(=O)O; 4Pal = N[C@@H](Cc1ccncc1)C(=O)O; αMeE = C[C@](N)(CCC(=O)O)C(=O)O; Cha = N[C@@H](CC1CCCCC1)C(=O)O; Cit = NC(=O)NCCC[C@H](N)C(=O)O; Thr(3ξ) = CC(O)[C@H](N)C(=O)O; Carboxymethyl = O=C(O)C*; Orn = NCCC[C@H](N)C(=O)O; Pra = C#CC[C@H](N)C(=O)O; Dab = NCC[C@H](N)C(=O)O; Dap = NC[C@H](N)C(=O)O

The experiment has as its target T1, human PD-1 / PD-L1-Ig binding on Jurkat cell line over-expressing human PD-1 (Jurkat-PD-1) (Homo sapiens, UniProt Q15116).
T1 construct: expressed in transfected cells; host or cells: Jurkat
Kind of experiment: Jurkat-PD-1 Cell Binding High-Content Screening Assay (CBA). The experiment is classed as cell-based. To be noted: PE-labeled PD-L1-Ig 20 nM final. The gist of the method: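 Jurkat-hPD-1 cells in DMEM with 10% fetal calf serum receive test compound and are held at 37° C for 2 h. PE-labeled PD-L1-Ig is added at 20 nM final and left for 1 hour. Cells are then fixed and Hoechst-stained, and binding is measured by imaging.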

The mark [1] stands for this setting: Jurkat-PD-1 cells, read-out: Jurkat HPD1_PDL1 IC50.

T1 sequence (Q15116 25-288): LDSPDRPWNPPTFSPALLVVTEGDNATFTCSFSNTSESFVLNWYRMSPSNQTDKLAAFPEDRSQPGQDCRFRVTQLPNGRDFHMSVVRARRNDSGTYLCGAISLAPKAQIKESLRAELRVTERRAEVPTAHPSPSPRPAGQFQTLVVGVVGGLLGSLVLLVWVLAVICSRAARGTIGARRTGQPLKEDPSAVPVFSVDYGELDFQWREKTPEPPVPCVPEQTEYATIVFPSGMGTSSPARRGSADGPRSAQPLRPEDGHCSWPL

On to `Cc1cccc(C[C@@H]2NC(=O)[C@H](CC(=O)O)NC(=O)[C@H](Cc3ccc(C(=O)O)cc3)NC(=O)[C@H](Cc3ccc(OCC(=O)O)cc3)NC(=O)CSC[C@@H](C(N)=O)NC(=O)[C@H]([C@@H](C)O)NC(=O)[C@H](C(C)C)NC(=O)[C@H](CC(C)C)NC(=O)[C@H](CCN)NC(=O)[C@@H](CC(C)C)NC(=O)[C@H](CCCN)NC(=O)[C@H](CCC(=O)O)NC(=O)[C@H](Cc3ccc(-c4ccccc4)cc3)NC(=O)[C@H](C(C)C)NC2=O)c1` [Compound 1556] ({CH2CO}-Y(Carboxymethyl)[Phe(4-COOH)]D[Phe(3-Me)]V[Bip]E[Orn][dL][Dab]LVTC-NH2; thioether N-14), for which, under setting [1], the IC50 worked out at 90.9 nM.
Same read-out and setting: in the case of `CC(C)C[C@H]1NC(=O)[C@H](CCCN)NC(=O)[C@H](CCCNC(N)=O)NC(=O)[C@H](Cc2ccc(-c3ccccc3)cc2)NC(=O)[C@H](C(C)C)NC(=O)[C@H](Cc2c[nH]c3ccccc23)NC(=O)[C@H](CC(=O)O)NC(=O)[C@](C)(CCC(=O)O)NC(=O)[C@H](CN)NC(=O)CSC[C@@H](C(=O)N[C@@H](C)C(N)=O)NC(=O)[C@H]([C@@H](C)O)NC(=O)[C@H](C(C)C)NC(=O)[C@H](CC2CCCCC2)NC(=O)[C@H](CCN)NC1=O` [Compound 2136] ({CH2CO}-[Dap][αMeE]DWV[Bip][Cit][Orn][dL][Dab][Cha]VTCA-NH2; thioether N-14) it was 814 nM; in that of `Cc1cccc(C[C@@H]2NC(=O)[C@H](CC(=O)O)NC(=O)[C@H](Cc3ccc(OCC(=O)O)cc3)NC(=O)[C@H](Cc3ccncc3)NC(=O)CSC[C@@H](C(=O)N[C@@H](CCN)C(N)=O)NC(=O)[C@H](CO)NC(=O)[C@H](C(C)(C)O)NC(=O)[C@H](CC3CCCCC3)NC(=O)[C@H](CCN)NC(=O)[C@@H](CC(C)C)NC(=O)[C@H](CCCN)NC(=O)[C@H](Cc3ccc(OCC(=O)O)cc3)NC(=O)[C@H](Cc3ccc(-c4ccccc4)cc3)NC(=O)[C@H](Cc3ccc(OCC(=O)O)cc3)NC2=O)c1` [Compound 2057] ({CH2CO}-[4Pal]Y(Carboxymethyl)D[Phe(3-Me)]Y(Carboxymethyl)[Bip]Y(Carboxymethyl)[Orn][dL][Dab][Cha][Val(3-OH)]SC[Dab]-NH2; thioether N-14), 3.6 nM.
With `CC(C)C[C@H]1NC(=O)[C@H](CCCN)NC(=O)[C@H](C(C)C)NC(=O)[C@H](Cc2ccc(-c3ccccc3)cc2)NC(=O)[C@H](C(C)C)NC(=O)[C@H](Cc2c[nH]c3ccccc23)NC(=O)[C@H](CC(=O)O)NC(=O)[C@H](Cc2ccc(OCC(=O)O)cc2)NC(=O)[C@H](Cc2ccc(OCc3ccccc3)cc2)NC(=O)CSC[C@@H](C(=O)N[C@@H](C)C(N)=O)NC(=O)[C@H]([C@@H](C)O)NC(=O)[C@H](C(C)C)NC(=O)[C@H](CC2CCCCC2)NC(=O)[C@H](CCN)NC1=O` [Compound 1527], the IC50 (Jurkat HPD1_PDL1 IC50, Jurkat-PD-1 cells) stood at 103 nM.
As for `CC(C)C[C@H]1NC(=O)[C@H](CCCN)NC(=O)[C@H](C(C)C)NC(=O)[C@H](Cc2ccc(-c3ccccc3)cc2)NC(=O)[C@H](C(C)C)NC(=O)[C@H](Cc2c[nH]c3ccccc23)NC(=O)[C@H](CC(=O)O)NC(=O)[C@H](Cc2ccc(OCC(=O)O)cc2)NC(=O)[C@H](Cc2cnc[nH]2)NC(=O)CSC[C@@H](C(=O)N[C@H](C)C(N)=O)NC(=O)[C@H](C(C)O)NC(=O)[C@H](C(C)C)NC(=O)[C@H](CC2CCCCC2)NC(=O)[C@H](CCN)NC1=O` (stereo partly drawn) [Compound 2563] ({CH2CO}-HY(Carboxymethyl)DWV[Bip]V[Orn][dL][Dab][Cha]V[Thr(3ξ)]C[dA]-NH2; thioether N-14), under setting [1], the IC50 was determined as 3 nM.
The same measure, in the same setting: in the case of `CC[C@H](C)[C@@H]1NC(=O)[C@H](Cc2ccc(-c3ccccc3)cc2)NC(=O)[C@H](C(C)C)NC(=O)[C@H](Cc2c[nH]c3ccccc23)NC(=O)[C@H](CC(=O)O)NC(=O)[C@H](Cc2ccc(OCC(=O)O)cc2)NC(=O)[C@H](CN)NC(=O)CSC[C@@H](C(=O)N[C@@H](C)C(N)=O)NC(=O)[C@H]([C@@H](C)O)NC(=O)[C@H](C(C)C)NC(=O)[C@H](Cc2ccc(O)cc2)NC(=O)[C@H](CCN)NC(=O)[C@@H](CC(C)C)NC(=O)[C@H](CCCN)NC1=O` [Compound 1678] ({CH2CO}-[Dap]Y(Carboxymethyl)DWV[Bip]I[Orn][dL][Dab]YVTCA-NH2; thioether N-14) it was 52 nM; in that of `C#CC[C@@H]1NC(=O)[C@H](CC2CCCCC2)NC(=O)[C@H](CCN)NC(=O)[C@@H](CC(C)C)NC(=O)[C@H](CCCN)NC(=O)[C@H](C(C)C)NC(=O)[C@H](Cc2ccc(-c3ccccc3)cc2)NC(=O)[C@H](C(C)C)NC(=O)[C@H](Cc2cccc(C)c2)NC(=O)[C@H](CC(=O)O)NC(=O)[C@H](Cc2ccc(OCC(=O)O)cc2)NC(=O)[C@H](CN)NC(=O)CSC[C@@H](C(N)=O)NC(=O)[C@H]([C@@H](C)O)NC1=O` [Compound 2013] ({CH2CO}-[Dap]Y(Carboxymethyl)D[Phe(3-Me)]V[Bip]V[Orn][dL][Dab][Cha][Pra]TC-NH2; thioether N-14), 21.2 nM; in that of `C#CC[C@H](NC(=O)[C@H](CCN)NC(=O)[C@@H]1CSCC(=O)N[C@@H](CN2CCOCC2)C(=O)N[C@@H](Cc2ccc(OCC(=O)O)cc2)C(=O)N[C@@H](CC(=O)O)C(=O)N[C@@H](Cc2cccc(C)c2)C(=O)N[C@@H](Cc2ccc(OCC(=O)O)cc2)C(=O)N[C@@H](Cc2ccc(-c3ccccc3)cc2)C(=O)N[C@@H](Cc2ccc(OCC(=O)O)cc2)C(=O)N[C@@H](CCCN)C(=O)N[C@H](CC(C)C)C(=O)N[C@@H](CCN)C(=O)N[C@@H](CC2CCCCC2)C(=O)N[C@@H](C(C)(C)O)C(=O)N[C@@H](CO)C(=O)N1)C(N)=O` [Compound 1852] ({CH2CO}-[Ala(morpholin-4-yl)]Y(Carboxymethyl)D[Phe(3-Me)]Y(Carboxymethyl)[Bip]Y(Carboxymethyl)[Orn][dL][Dab][Cha][Val(3-OH)]SC[Dab][Pra]-NH2; thioether N-14), 18.9 nM.
As to `Cc1cccc(C[C@@H]2NC(=O)[C@H](CC(=O)O)NC(=O)[C@H](CCc3ccncc3)NC(=O)[C@H](CN)NC(=O)CSC[C@@H](C(=O)N[C@@H](C)C(N)=O)NC(=O)[C@H]([C@@H](C)O)NC(=O)[C@H](C(C)C)NC(=O)[C@H](CC(C)C)NC(=O)[C@H](CCN)NC(=O)[C@@H](CC(C)C)NC(=O)[C@H](CCCN)NC(=O)[C@H](C(C)C)NC(=O)[C@H](Cc3ccc(-c4ccccc4)cc3)NC(=O)[C@H](C(C)C)NC2=O)c1` [Compound 1253] ({CH2CO}-[Dap][h4Pal]D[Phe(3-Me)]V[Bip]V[Orn][dL][Dab]LVTCA-NH2; thioether N-14), the IC50 under setting [1] came out at 6.8 nM.
Same read-out and setting: the result for `CC(C)C[C@H]1NC(=O)[C@H](CCCN)NC(=O)[C@H](C(C)C)NC(=O)[C@H](Cc2ccc(-c3ccccc3)cc2)NC(=O)[C@H](C(C)C)NC(=O)[C@H](Cc2c[nH]c3ccccc23)NC(=O)[C@H](CC(=O)O)NC(=O)[C@H](Cc2ccc(OCC(=O)O)cc2)NC(=O)[C@H](Cc2ccc(OCC(=O)O)cc2)NC(=O)CSC[C@@H](C(=O)N[C@@H](C)C(N)=O)NC(=O)[C@H]([C@@H](C)O)NC(=O)[C@H](C(C)C)NC(=O)[C@H](Cc2cccc(F)c2)NC(=O)[C@H](CCN)NC1=O` [Compound 1674] ({CH2CO}-Y(Carboxymethyl)Y(Carboxymethyl)DWV[Bip]V[Orn][dL][Dab][Phe(3-F)]VTCA-NH2; thioether N-14) reads 16.9 nM.
